Values after ≈ are worked out from the molar mass of the structure shown. Like-named read-outs stand apart in the source and are kept apart here. *1 amine or outer side, *2 acyl side, *3 side chain or, on linkers, in order; H or OH if unused. Where a SMILES comes first, the peptide text is derived from it. Side-chain parts run from the residue outwards. [ ]: non-standard residue; d: D form. The star is where a group is joined. γGlu = O=C(O)[C@H](CCC(=O)[*:2])N[*:1]; Stearoyl = CCCCCCCCCCCCCCCCCC(=O)*; Aib = CC(C)(N)C(=O)O
Columns and labels:
female NMRI-mice = experiment: Gastric emptying and intestinal passage in female NMRI-mice; assay type: in vivo
Protocol: Female NMRI-mice of a body weight between 20 and 30 g were used. Mice were adapted to housing conditions for at least one week.
Mice were overnight fasted, while water remained available all the time. On the study day, mice were weighed, single-caged and allowed access to 500 mg of feed for 30 min, while water was removed. At the end of the 30 min feeding period, remaining feed was removed and weighed. Then, the test compound/reference compound or its vehicle in the control group was administered subcutaneously. 60 min later, to allow the compound to reach relevant plasma exposure, a coloured, non-caloric bolus was instilled via gavage into the stomach. After another 30 min, the animals were sacrificed and the stomach and the small intestine prepared. The filled stomach was weighed, emptied, carefully cleaned and dried and reweighed. The stomach content, calculated as weight of filled subtracted by the weight of emptied stomach, indicated the degree of gastric emptying. The small intestine was straightened without force and measured in length. Then the distance from the gastric beginning of the gut to the tip of the farthest travelled intestinal content bolus was measured. The intestinal passage was given as ratio in percent of the latter distance and the total length of the small intestine.
Statistical analyses were performed with Everstat 6.0 by 1-way-ANOVA, followed by Dunnett's as post-hoc test. Dunnett's Test was applied to compare versus vehicle control. Differences were considered statistically significant at the p<0.05 level.
30 min later, the assessment of stomach contents and intestinal passage was done (FIG. 8).

trypsin = experiment: Enzymatic stability testing versus trypsin; assay type: in vitro ADME; details: human, human recombinant trypsin, pH 8.3; % of degradation after 120 min; 2 μM peptide, 37° C.; read-out: Lability versus enzymatic degradation, Trypsin
Protocol: (§1) The reaction was stopped by addition of ethanol. The samples were analyzed by LC-MS/MS. […] The metabolic lability is given as % of degradation.

in vivo [1] = details: female, Gottinger, minipig, plasma, sc, 0.1 mg/kg
Protocol: Female Gottinger minipigs were dosed 0.1 mg/kg subcutaneously (s.c.). Blood samples were collected after 0.25, 0.5, 1, 2, 4, 8, 24, 32, 48, 56 and 72 hours post application. Plasma samples were analyzed after protein precipitation via liquid chromatography mass spectrometry (LC/MS). PK parameters and half-life were calculated using WinonLin Version 5.2.1 (non-compartment model).

[2] = Solubility testing in buffer systems (HPLC-UV); assay type: physicochemical; details: buffer system, target concentration 1.0 mg/mL
plasmin = experiment: Enzymatic stability testing versus plasmin; assay type: in vitro ADME; details: human, human recombinant plasmin, pH 8.3; % of degradation after 120 min; 2 μM peptide, 37° C.; read-out: Lability versus enzymatic degradation, Plasmin
Protocol: as §1

[3] = biological target: T1, human glucagon receptor (hGLUC R) (Homo sapiens, UniProt P47871); experiment: cAMP response of HEK-293 cells stably expressing human glucagon receptor (HTRF); assay type: cell-based; details: EC50 hGLUC R, Table 7; cAMP formation
T1 construct: expressed in transfected cells; host or cells: HEK-293
Protocol: (§2) cAMP content of cells was determined using a kit from Cisbio Corp. (cat. no. 62AM4PEC) based on HTRF (Homogenous Time Resolved Fluorescence). For preparation, cells were split into T175 culture flasks and grown overnight to near confluency in medium (DMEM/10% FBS). Medium was then removed and cells washed with PBS lacking calcium and magnesium, followed by proteinase treatment with accutase (Sigma-Aldrich cat. no. A6964). Detached cells were washed and resuspended in assay buffer (1×HBSS; 20 mM HEPES, 0.1% BSA, 2 mM IBMX) and cellular density determined. They were then diluted to 400000 cells/ml and 25 μl-aliquots dispensed into the wells of 96-well plates. For measurement, 25 μl of test compound in assay buffer was added to the wells, followed by incubation for 30 minutes at room temperature.

[4] = Chemical stability in solution, 7 days at 25° C. (% remaining peptide); assay type: physicochemical; details: % remaining peptide after 7 days at 25° C.
Text: The chemical stability is expressed as “% remaining peptide”.

[5] = biological target: T2, human GLP-1 receptor (hGLP-1 R) (Homo sapiens, UniProt P43220); experiment: cAMP response of HEK-293 cells stably expressing human GLP-1 receptor (HTRF); assay type: cell-based; details: EC50 hGLP-1 R, Table 7; cAMP formation
T2 construct: expressed in transfected cells; host or cells: HEK-293
Protocol: as §2

neprilysin = neprilysin (Homo sapiens, UniProt P08473); experiment: in vitro; details: human recombinant neprilysin, pH 7.5
Protocol: In the experiment, GLP-1 was used as a positive control. The incubation was started by addition of the enzyme fraction to the pre-warmed buffer solution. […] The reaction was stopped by addition of ethanol. The samples were analyzed by LC-MS/MS. The percentage of biotransformation was measured by extent of depletion of the test compound in mass spectrometry. Therefore the peak area of the MRM ion signal of the 0h time point (100%) versus the incubated time points was measured. The metabolic lability is given as % of degradation.

in vivo [6] = details: mouse, plasma, sc, 1 mg/kg
Protocol: Mice were dosed 1 mg/kg subcutaneously (s.c.). The mice were sacrificed and blood samples were collected after 0.25, 0.5, 1, 2, 4, 8, 16 and 24 hours post application. Plasma samples were analyzed after protein precipitation via liquid chromatography mass spectrometry (LC/MS). PK parameters and half-life were calculated using WinonLin Version 5.2.1 (non-compartment model).

[7] = tested on: female diabetic dbdb-mice; experiment: 4 weeks of treatment on glucose, HbA1c and oral glucose tolerance in female diabetic dbdb-mice (method 4); assay type: in vivo
Protocol: 8 week old, female diabetic dbdb-mice of mean non-fasted glucose value of 14.5 mmol/l and a body weight of 37-40 g were used. Mice were individually marked and were adapted to housing conditions for at least one week.
7 days prior to study start, baseline values for non-fasted glucose and HbA1c were determined, 5 days prior to study start, mice were assigned to groups and cages (5 mice per cage, 10 per group) according to their HbA1c values to ensure even distribution of lower and higher values between groups (stratification).
Mice were treated for 4 weeks, by once daily subcutaneous administration 3 hours prior to the dark phase (6 pm to 6 am). Blood samples from a tail tip incision were obtained for HbA1c on study day 21 and oral glucose tolerance was assessed in the 4th week. Oral glucose tolerance test was done in the morning without prior extra compound administration to majorly assess the effect of chronic treatment and less of acute compound administration. Mice were fasted for 4 hours prior to oral glucose administration (2 g/kg, t=0 min). Blood samples were drawn prior to glucose administration and at 15, 30, 60, 90, 120, and 180 min thereafter. Feed was returned after the last blood sampling. Results are represented as change from baseline, glucose in mmol/l and HbA1c in %.
Statistical analyses are performed with Everstat Version 6.0 based on SAS by 1-way-ANOVA, followed by Dunnett's post-hoc test against vehicle-control. Differences are considered statistically significant at the p<0.05 level.

[8] = 10 μg/kg s.c. once daily, p<0.05

T2 sequence (P43220 24-463): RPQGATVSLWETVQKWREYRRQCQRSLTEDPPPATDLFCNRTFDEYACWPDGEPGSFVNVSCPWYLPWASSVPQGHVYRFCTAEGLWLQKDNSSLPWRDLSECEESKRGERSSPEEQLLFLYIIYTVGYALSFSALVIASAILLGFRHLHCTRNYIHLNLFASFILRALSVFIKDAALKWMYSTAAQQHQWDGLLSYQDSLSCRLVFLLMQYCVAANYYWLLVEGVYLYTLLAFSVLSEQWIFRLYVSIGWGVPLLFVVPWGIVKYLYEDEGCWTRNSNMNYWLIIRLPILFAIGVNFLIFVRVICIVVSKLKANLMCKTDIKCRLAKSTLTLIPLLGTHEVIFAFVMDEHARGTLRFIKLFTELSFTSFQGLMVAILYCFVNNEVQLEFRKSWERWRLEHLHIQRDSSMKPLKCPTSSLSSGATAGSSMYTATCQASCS
neprilysin, sequence (P08473 whole entry): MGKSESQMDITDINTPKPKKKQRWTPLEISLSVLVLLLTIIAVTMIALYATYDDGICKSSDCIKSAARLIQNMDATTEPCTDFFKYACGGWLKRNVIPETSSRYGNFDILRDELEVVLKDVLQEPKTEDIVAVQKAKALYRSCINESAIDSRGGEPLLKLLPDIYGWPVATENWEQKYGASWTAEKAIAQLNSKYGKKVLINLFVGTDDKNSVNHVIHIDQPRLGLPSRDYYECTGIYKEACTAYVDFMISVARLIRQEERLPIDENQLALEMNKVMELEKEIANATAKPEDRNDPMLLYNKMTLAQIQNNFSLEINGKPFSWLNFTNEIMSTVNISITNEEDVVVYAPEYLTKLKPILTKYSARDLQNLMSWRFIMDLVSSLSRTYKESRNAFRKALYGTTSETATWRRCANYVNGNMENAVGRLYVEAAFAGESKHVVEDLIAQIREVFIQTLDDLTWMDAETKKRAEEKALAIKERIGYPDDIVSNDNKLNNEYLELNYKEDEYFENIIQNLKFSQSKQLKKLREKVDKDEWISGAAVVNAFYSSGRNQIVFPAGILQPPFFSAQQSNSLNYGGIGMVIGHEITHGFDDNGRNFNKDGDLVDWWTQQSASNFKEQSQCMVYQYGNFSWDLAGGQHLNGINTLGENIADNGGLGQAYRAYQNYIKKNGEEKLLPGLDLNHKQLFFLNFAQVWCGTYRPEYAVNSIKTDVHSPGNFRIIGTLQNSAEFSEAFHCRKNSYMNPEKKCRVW
T1 sequence (P47871 26-477): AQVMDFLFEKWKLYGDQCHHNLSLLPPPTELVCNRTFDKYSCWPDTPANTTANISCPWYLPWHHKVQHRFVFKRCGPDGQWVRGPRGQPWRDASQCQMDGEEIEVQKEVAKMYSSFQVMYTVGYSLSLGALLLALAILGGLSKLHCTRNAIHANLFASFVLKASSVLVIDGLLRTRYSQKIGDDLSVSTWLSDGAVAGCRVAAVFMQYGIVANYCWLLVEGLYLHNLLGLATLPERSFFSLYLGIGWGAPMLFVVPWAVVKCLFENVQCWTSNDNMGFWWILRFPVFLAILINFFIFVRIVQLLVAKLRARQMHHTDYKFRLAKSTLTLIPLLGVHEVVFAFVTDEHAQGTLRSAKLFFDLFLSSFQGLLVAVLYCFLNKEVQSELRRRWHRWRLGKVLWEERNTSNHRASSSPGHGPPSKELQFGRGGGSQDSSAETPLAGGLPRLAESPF

SMILES: CCCCCCCCCCCCCCCCCC(=O)N[C@@H](CCC(=O)NCCCC[C@H](NC(=O)[C@H](CCC(N)=O)NC(=O)[C@@H](NC(=O)[C@H](CO)NC(=O)[C@H](CC(C)C)NC(=O)[C@H](CC(=O)O)NC(=O)[C@H](CO)NC(=O)[C@@H](NC(=O)[C@H](Cc1ccccc1)NC(=O)[C@@H](NC(=O)CNC(=O)[C@H](CCC(=O)O)NC(=O)C(C)(C)NC(=O)[C@@H](N)Cc1ccc(O)cc1)[C@@H](C)O)[C@@H](C)O)[C@@H](C)CC)C(=O)N[C@@H](CCC(=O)O)C(=O)N[C@@H](CCC(=O)O)C(=O)N[C@@H](CCC(=O)O)C(=O)N[C@@H](C)C(=O)N[C@H](C(=O)N[C@@H](CCCNC(=N)N)C(=O)N[C@@H](CC(C)C)C(=O)N[C@@H](Cc1ccccc1)C(=O)N[C@H](C(=O)N[C@@H](CCC(=O)O)C(=O)N[C@@H](Cc1c[nH]c2ccccc12)C(=O)N[C@@H](CC(C)C)C(=O)N[C@@H](CCCCN)C(=O)N[C@@H](C)C(=O)NCC(=O)NCC(=O)N1CCC[C@H]1C(=O)N[C@@H](CO)C(=O)N[C@@H](CO)C(=O)NCC(=O)N[C@@H](C)C(=O)N1CCC[C@H]1C(=O)N1CCC[C@H]1C(=O)N1CCC[C@H]1C(=O)N[C@@H](CO)C(N)=O)[C@@H](C)CC)C(C)C)C(=O)O [SEQ ID NO: 10, Y-Aib-E-G-T-F-T-S-D-L-S-I-Q-K(γE-x70)-EEEAVRLFIEWLKAGGPSSGAPPPS-NH2] (H-Y[Aib]EGTFTSDLSIQK([γGlu-Stearoyl])EEEAVRLFIEWLKAGGPSSGAPPPS-NH2)
- increase of remaining gastric contents (female NMRI-mice; 1 μg/kg s.c.): 1%
- reduction of intestinal passage (female NMRI-mice; 1 μg/kg s.c.): 28%
- increase of remaining gastric contents (female NMRI-mice; 10 μg/kg s.c.): 28%
- reduction of intestinal passage (female NMRI-mice; 10 μg/kg s.c.): 58%
- increase of remaining gastric contents (female NMRI-mice; 100 μg/kg s.c.): 68%
- reduction of intestinal passage (female NMRI-mice; 100 μg/kg s.c.): 64%
- metabolised at 2 h, 2 μM (trypsin): 33%
- Cmax (in vivo [1]): 588 ng/mL
- half-life (in vivo [1]): 20.1 h
- solubility at 2 h ([2]; pH 4.5, read-out: Solubility (pH 4.5)): 120 µg/mL (≈ 26.3 µM)
- solubility at 2 h ([2]; pH 7.4, read-out: Solubility (pH 7.4)): > 1000 µg/mL
- metabolised at 2 h, 2 μM (plasmin): 0%
- EC50 [3]: > 1000 nM
- Stability (pH 4.5) ([4]; pH 4.5): 99.0%
- Stability (pH 7.4) ([4]; pH 7.4): 97.0%
- EC50 [5]: 0.0125 nM
- metabolised at 2 h, 2 μM (neprilysin): 0%
- Cmax (in vivo [6]): 5740 ng/mL
- half-life (in vivo [6]): 4.3 h
- non-fasted glucose compared to vehicle control ([7]; 10 μg/kg s.c. once daily): tended to reduce non-fasted glucose
- HbA1c compared to vehicle control [7, 8]: prevented an increase of HbA1c in a statistical significant manner
- reduction of AUC under the glucose curve compared to vehicle control [7, 8]: reached statistical significance
- oral glucose tolerance ([7]; 3 and 10 μg/kg s.c. once daily): improved oral glucose tolerance

From patent US20140206608A1 (priority 2012, published 2014)
